Laboratory results: patent US11866429B2, “Heteroaryl-biphenyl amines for the treatment of PD-L1 diseases” (CHEMOCENTRYX, INC., priority 2019, dated 2024)

biological target: human PD-L1 (Homo sapiens (Human), UniProt Q9NZQ7); assay: Enzyme-Linked Immunosorbent Assay (ELISA), PD-1/PD-L1 binding; conditions: plates coated with human PD-L1; Human PD-1 and biotin added; absorbance at 450 nm
Method: 96 Well plates were coated with 1 μg/mL of human PD-L1 (obtained from R&D) in PBS overnight at 4° C. The wells were then blocked with 2% BSA in PBS (W/V) with 0.05% TWEEN-20 for 1 hour at 37° C. The plates were washed 3 times with PBS/0.05% TWEEN-20 and the compounds were serial diluted (1:5) in dilution medium and added to the ELISA plates. Human PD-1 and biotin 0.3 μg/mL (ACRO Biosystems) were added and incubated for 1 hour at 37° C. then washed 3 times with PBS/0.05% TWEEN-20. A second block was performed with 2% BSA in PBS (W/V)/0.05% TWEEN-20 for 10 min at 37° C. and the plates were washed 3 times with PBS/0.05% TWEEN-20. Streptavidin-HRP was added for 1 hour at 37° C. then the plates were washed 3 times with PBS/0.05% TWEEN-20. TMB substrate was added and reacted for 20 min at 37° C. A stop solution (2 N aqueous […]) was added. The absorbance was read at 450 nm using a micro-plate spectrophotometer.

Chain of human PD-L1 (Q9NZQ7 19-239): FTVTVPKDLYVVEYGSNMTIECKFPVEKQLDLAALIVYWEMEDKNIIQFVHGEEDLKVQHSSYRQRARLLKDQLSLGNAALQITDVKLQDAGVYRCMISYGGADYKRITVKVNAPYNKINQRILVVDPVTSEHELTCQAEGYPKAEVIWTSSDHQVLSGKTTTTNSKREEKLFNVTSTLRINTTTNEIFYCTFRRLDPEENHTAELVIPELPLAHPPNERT

SMILES | IC50
COc1nc(-c2cccc(-c3cccc(Nc4nc(C)nc5cccnc45)c3C)c2Cl)ccc1CNC[C@H](O)CO [Compound 1.027] | < 10 nM
COc1nc(-c2cccc(-c3cccc(Nc4nc(C)nc5cccnc45)c3C)c2Cl)ccc1CNC(C)C [Compound 1.029] | < 10 nM
COc1nc(-c2cccc(-c3cccc(Nc4nc(C)nc5cccnc45)c3C)c2Cl)ccc1CNC(C)(C)C(=O)O [Compound 1.030] | < 10 nM
COc1nc(-c2cccc(-c3cccc(Nc4nc(C)nc5cccnc45)c3C)c2Cl)ccc1CNCC(=O)O [Compound 1.031] | < 10 nM
COc1nc(-c2cccc(-c3cccc(Nc4nc(C)nc5cccnc45)c3C)c2Cl)ccc1CNCCn1ccnc1 [Compound 1.032] | < 10 nM
COc1nc(-c2cccc(-c3cccc(Nc4nc(C)nc5cccnc45)c3C)c2Cl)ccc1CN1CC[C@@](C)(C(=O)O)C1 [Compound 1.033] | < 10 nM
COc1nc(-c2cccc(-c3cccc(Nc4nc(C)nc5cccnc45)c3C)c2Cl)ccc1CN1CC[C@@](C)(O)C1 [Compound 1.034] | < 10 nM
COc1nc(-c2cccc(-c3cccc(Nc4nc(C)nc5cccnc45)c3C)c2Cl)ccc1CNC[C@@H](O)CC(=O)O [Compound 1.035] | < 10 nM
COc1nc(-c2cccc(-c3cccc(Nc4nc(C)nc5cccnc45)c3C)c2Cl)ccc1CN1CCCC[C@H]1C(=O)O [Compound 1.036] | < 10 nM
COc1nc(-c2cccc(-c3cccc(Nc4nc(C)nc5cccnc45)c3C)c2Cl)ccc1CN1CC2(CCNC2=O)C1 [Compound 1.037] | < 10 nM
CNCc1ccc(-c2cccc(-c3cccc(Nc4nc(C)nc5cccnc45)c3C)c2Cl)nc1OC [Compound 1.038] | < 10 nM
COc1nc(-c2cccc(-c3cccc(Nc4nc(C)nc5cccnc45)c3C)c2Cl)ccc1CN1CC[C@@H](O)C1 [Compound 1.040] | < 10 nM
COc1nc(-c2cccc(-c3cccc(Nc4nc(C)nc5cccnc45)c3C)c2Cl)ccc1CNCC(N)=O [Compound 1.041] | < 10 nM
COc1nc(-c2cccc(-c3cccc(Nc4nc(C)nc5cccnc45)c3C)c2Cl)ccc1CN(C)[C@@H]1CCOC[C@@H]1O [Compound 1.042] | < 10 nM
COc1nc(-c2cccc(-c3cccc(Nc4nc(C)nc5cccnc45)c3C)c2Cl)ccc1CN1CCC(O)CC1 [Compound 1.043] | < 10 nM
COc1nc(-c2cccc(-c3cccc(Nc4nc(C)nc5cccnc45)c3C)c2Cl)ccc1CN1CC[C@@H](C(=O)O)C1 [Compound 1.044] | < 10 nM
CCc1nc(-c2cccc(-c3cccc(Nc4nc(C)nc5cccnc45)c3C)c2Cl)ccc1CN[C@@H]1CCOC[C@@H]1O [Compound 1.045] | < 10 nM
CCc1nc(-c2cccc(-c3cccc(Nc4nc(C)nc5cccnc45)c3C)c2Cl)ccc1CNC[C@@H]1CCC(=O)N1 [Compound 1.046] | < 10 nM
COc1nc(-c2cccc(-c3cccc(Nc4nc(C)nc5cccnc45)c3C)c2Cl)ccc1CN[C@H]1CCOC[C@H]1O [Compound 1.047] | < 10 nM
Cc1nc(Nc2cccc(-c3cccc(-c4ccc(CNC[C@@H]5CCC(=O)N5)c(C)n4)c3Cl)c2C)c2ncccc2n1 [Compound 1.048] | < 10 nM
COc1nc(-c2cccc(-c3cccc(Nc4nc(C)nc5cccnc45)c3C)c2Cl)ccc1CN1CCOCC1 [Compound 1.049] | < 10 nM
COc1nc(-c2cccc(-c3cccc(Nc4nc(C)nc5cccnc45)c3C)c2Cl)ccc1CNC(C)(C)CCO [Compound 1.050] | < 10 nM
COc1nc(-c2cccc(-c3cccc(Nc4nc(C)nc5cccnc45)c3C)c2Cl)ccc1CNCC(C)(C)CO [Compound 1.051] | < 10 nM
COc1nc(-c2cccc(-c3cccc(Nc4nc(C)nc5cccnc45)c3C)c2Cl)ccc1CNC1CCOCC1 [Compound 1.052] | < 10 nM

SMILES | IC50
COc1nc(-c2cccc(-c3cccc(Nc4nc(C)nc5cccnc45)c3C)c2Cl)ccc1CN1CC2(CCC(=O)N2)C1 [Compound 1.053] | < 10 nM
COc1nc(-c2cccc(-c3cccc(Nc4nc(C)nc5cccnc45)c3C)c2Cl)ccc1CN[C@@H]1CCC(=O)NC1 [Compound 1.054] | < 10 nM
COc1nc(-c2cccc(-c3cccc(Nc4nc(C)nc5cccnc45)c3C)c2Cl)ccc1CN[C@@H]1CNC(=O)C1 [Compound 1.055] | < 10 nM
COc1nc(-c2cccc(-c3cccc(Nc4nc(C)nc5cccnc45)c3C)c2Cl)ccc1CNC(CO)CO [Compound 1.056] | < 10 nM
COc1nc(-c2cccc(-c3cccc(Nc4nc(C)nc5cccnc45)c3C)c2Cl)ccc1CNCCO [Compound 1.057] | < 10 nM
COc1nc(-c2cccc(-c3cccc(Nc4nc(C)nc5cccnc45)c3C)c2Cl)ccc1CN1CC(O)C1 [Compound 1.058] | < 10 nM
COc1nc(-c2cccc(-c3cccc(Nc4nc(C)nc5cccnc45)c3C)c2Cl)ccc1CN[C@H]1CCOC1 [Compound 1.059] | < 10 nM
COc1nc(-c2cccc(-c3cccc(Nc4nc(C)nc5cccnc45)c3C)c2Cl)ccc1CNCC(C)(C)C(=O)O [Compound 1.060] | < 10 nM
COc1nc(-c2cccc(-c3cccc(Nc4nc(C)nc5cccnc45)c3C)c2Cl)ccc1CNCC(C)(C)O [Compound 1.061] | < 10 nM
COc1nc(-c2cccc(-c3cccc(Nc4nc(C)nc5cccnc45)c3C)c2Cl)ccc1CNC(CO)(CO)CO [Compound 1.062] | < 10 nM
COc1nc(-c2cccc(-c3cccc(Nc4nc(C)nc5cccnc45)c3C)c2Cl)ccc1CN1CCC(C)(O)CC1 [Compound 1.063] | < 10 nM
COc1nc(-c2cccc(-c3cccc(Nc4nc(C)nc5cccnc45)c3C)c2Cl)ccc1CN[C@@H]1CCOC[C@@H]1O [Compound 1.064] | < 10 nM
COc1nc(-c2cccc(-c3cccc(Nc4nc(C)nc5cccnc45)c3C)c2Cl)ccc1CN1CC(C)(C(=O)O)C1 [Compound 1.065] | < 10 nM
COc1nc(-c2cccc(-c3cccc(Nc4nc(C)nc5cccnc45)c3C)c2Cl)ccc1CN1CC(C(=O)O)C1 [Compound 1.066] | < 10 nM
Cc1cc2nccnc2c(Nc2cccc(-c3cccc(-c4ccc(CNC[C@@H]5CCC(=O)N5)c(O)n4)c3Cl)c2C)n1 [Compound 1.067] | 10 to 1000 nM
COc1nc(-c2cccc(-c3cccc(Nc4nc(C(C)C)nc5cccnc45)c3C)c2Cl)ccc1CNC[C@@H]1CCC(=O)N1 [Compound 1.068] | < 10 nM
COc1nc(-c2cccc(-c3cccc(Nc4nc(C(F)(F)F)nc5cccnc45)c3C)c2Cl)ccc1CN1CC(C)(C(=O)O)C1 [Compound 1.069] | < 10 nM
COc1nc(-c2cccc(-c3cccc(Nc4nc(C(F)(F)F)nc5cccnc45)c3C)c2Cl)ccc1CNC[C@@H]1CCC(=O)N1 [Compound 1.070] | < 10 nM
COc1nc(-c2cccc(-c3cccc(Nc4ncnc5cccnc45)c3Cl)c2Cl)ccc1CNC[C@@H]1CCC(=O)N1 [Compound 1.071] | < 10 nM
COc1nc(-c2cccc(-c3cccc(Nc4nc(C)nc5cccnc45)c3Cl)c2Cl)ccc1CN1CC(C)(C(=O)O)C1 [Compound 1.072] | < 10 nM
COc1nc(-c2cccc(-c3cccc(Nc4nc(C)nc5cccnc45)c3C)c2Cl)ccc1CNC[C@@H]1CCC(=O)N1 [Compound 1.073] | < 10 nM
COc1nc(-c2cccc(-c3cccc(Nc4nc(C)nc5cccnc45)c3Cl)c2Cl)ccc1CNC[C@@H]1CCC(=O)N1 [Compound 1.074] | < 10 nM
COc1nc(-c2cccc(-c3cccc(Nc4nccc5nccnc45)c3C)c2Cl)ccc1CN[C@@H]1CCOC[C@@H]1O [Compound 1.075] | < 10 nM
